This is an account of results in ChEMBL document CHEMBL3045147, “Synthesis and evaluation of a series of novel imidazolidinone analogues of 6-aminoflavone as anticancer and anti-inflammatory agents” (Med Chem Res, 2013).

Values after ≈ are worked out from the molar mass of the structure shown. Active and inactive are the calls of the source. The calls are words filed in the database; no cut-off is given here.

Test [1] relates to MDA-MB-435. The experiment in a line: Cytotoxicity against Homo sapiens (human) MDA-MB-435 cells assessed as inhibition of cell viability by SRB assay. In kind it is functional, cell-based.
The subject of test [2] is MDA-MB-435. The experiment in a line: Cytotoxicity against Homo sapiens (human) MDA-MB-435 cells assessed as inhibition of cell viability by MTT assay. The test is classed as functional, cell-based. For orientation: Tetrazolium assays rely on reduction of a dye to a coloured formazan, in cell work by metabolically active cells.
The test system of test [3] is Rattus norvegicus. Nature of the test: Anti-inflammatory activity in Wistar Rattus norvegicus (rat) assessed as inhibition of carrageenan-induced paw edema at 100 mg/kg/day, po measured after 3 hr. In kind it is functional. In general terms: The carrageenan paw model is a standard test of acute inflammation.
Test [4] relates to HeLa. Nature of the test: Cytotoxicity against Homo sapiens (human) HeLa cells assessed as inhibition of cell viability by MTT assay. The test is classed as functional, cell-based.
For test [5], the system named is HeLa. Nature of the test: Cytotoxicity against Homo sapiens (human) HeLa cells assessed as inhibition of cell viability by SRB assay. In kind it is functional, cell-based. For orientation: Sulforhodamine B stains cellular protein and so reports cell mass.
Test [6] has as its system HeLa. Nature of the test: Cell cycle arrest in Homo sapiens (human) HeLa cells assessed as accumulation of cells at G0/G1 phase after 48 hr by FACS analysis (reference value: 74.27%). The test is classed as functional.
The subject of test [7] is HeLa. Nature of the test: Cell cycle arrest in Homo sapiens (human) HeLa cells assessed as accumulation of cells at S phase after 48 hr by FACS analysis (reference value: 6.34%). The test is classed as functional.
The test system of test [8] is HeLa. Nature of the test: Cell cycle arrest in Homo sapiens (human) HeLa cells assessed as accumulation of cells at Sub-G0 phase after 48 hr by FACS analysis (reference value: 1.15%). The test is classed as functional.
Test [9] concerns HeLa. Nature of the test: Cell cycle arrest in Homo sapiens (human) HeLa cells assessed as accumulation of cells at G2/M phase after 48 hr by FACS analysis (reference value: 18.65%). The test is classed as functional.
Test [10] relates to Rattus norvegicus. Nature of the test: Anti-inflammatory activity in Wistar Rattus norvegicus (rat) assessed as inhibition of carrageenan-induced paw edema at 50 mg/kg, po measured after 3 hr. In kind it is functional.
Test [11] in a line: Anticancer activity against Mus musculus (mouse) EAC cells xenografted in albino mouse assessed as increase in body weight at 100 mg/kg/day administered for 9 days measured on day 12 (reference value: 44.42 +/-2.82%). In kind it is functional, Ehrlich.
A short description of test [12]: Anticancer activity against Mus musculus (mouse) EAC cells xenografted in albino mouse assessed as increase in body weight at 100 mg/kg/day administered for 9 days measured on day 15 (reference value: 58.81 +/-2.67%). The test is classed as functional, Ehrlich.
A short description of test [13]: Anticancer activity against Mus musculus (mouse) EAC cells xenografted in albino mouse assessed as median survival time at 100 mg/kg/day administered for 9 days (reference value: 17 days). In kind it is functional, Ehrlich.
A further test has as its system Ehrlich. Nature of the test: Anticancer activity against Mus musculus (mouse) EAC cells xenografted in albino mouse assessed as decrease in ascites fluid volume at 50 to 100 mg/kg/day administered for 9 days. The test is classed as functional, organism-based.
The nature of test [14]: Anticancer activity against Mus musculus (mouse) EAC cells xenografted in albino mouse assessed as mean survival time at 100 mg/kg/day administered for 9 days (reference value: 17.33 +/-0.21 days). The test is classed as functional, Ehrlich.
Test [15] in a line: Anticancer activity against Mus musculus (mouse) EAC cells xenografted in albino mouse assessed as increase in mean life span at 50 mg/kg/day administered for 9 days. The test is classed as functional, Ehrlich.
For test [16], the system named is HeLa. Nature of the test: Cytotoxicity against Homo sapiens (human) HeLa cells assessed as morphological changes after 24 hr by microscopic analysis. The test is classed as functional, cell-based.
Test [17] in a line: Anticancer activity against Mus musculus (mouse) EAC cells xenografted in albino mouse assessed as median survival time at 50 mg/kg/day administered for 9 days (reference value: 17 days). The test is classed as functional, Ehrlich.
A short description of test [18]: Anticancer activity against Mus musculus (mouse) EAC cells xenografted in albino mouse assessed as increase in mean life span at 100 mg/kg/day administered for 9 days. In kind it is functional, Ehrlich.
Test [19] in a line: Anticancer activity against Mus musculus (mouse) EAC cells xenografted in albino mouse assessed as increase in body weight at 100 mg/kg/day administered for 9 days measured on day 6 (reference value: 16.31 +/-0.48%). In kind it is functional, Ehrlich.
Test [20] in a line: Anticancer activity against Mus musculus (mouse) EAC cells xenografted in albino mouse assessed as increase in median life span at 50 mg/kg/day administered for 9 days. The test is classed as functional, Ehrlich.
For test [21], the system named is HeLa. The experiment in a line: Ratio of 6-aminoflavone IC50 to compound IC50 for Homo sapiens (human) HeLa cells. In kind it is functional.
Test [22] can be described thus: Anticancer activity against Mus musculus (mouse) EAC cells xenografted in albino mouse assessed as increase in body weight at 100 mg/kg/day administered for 9 days measured on day 9 (reference value: 34.31 +/-1.06%). The test is classed as functional, Ehrlich.
The nature of test [23]: Anticancer activity against Mus musculus (mouse) EAC cells xenografted in albino mouse assessed as increase in median life span at 100 mg/kg/day administered for 9 days. The test is classed as functional, Ehrlich.
Test [24] relates to MDA-MB-435. The experiment in a line: Ratio of 6-aminoflavone IC50 to compound IC50 for Homo sapiens (human) MDA-MB-435 cells. The test is classed as functional.
Test [25] in a line: Anticancer activity against Mus musculus (mouse) EAC cells xenografted in albino mouse assessed as mean survival time at 50 mg/kg/day administered for 9 days (reference value: 17.33 +/-0.21 days). The test is classed as functional, Ehrlich.
A short description of test [26]: Anticancer activity against Mus musculus (mouse) EAC cells xenografted in albino mouse assessed as increase in body weight at 100 mg/kg/day administered for 9 days measured on day 3 (reference value: 4.56 +/-0.52%). The test is classed as functional, Ehrlich.

As usually defined, the IC50 is the concentration that inhibits the measured activity by half. Usually inhibition in vivo stands for the drop in the measured response relative to a control, in per cent. As to `O=C1/C(=C\c2ccc(Cl)c(Cl)c2)N=C(c2ccccc2)N1c1ccc2oc(-c3ccccc3)cc(=O)c2c1`, the IC50 in the test with MDA-MB-435 [1] came out at 20.1 µg/mL (≈ 37.5 µM); in the test on MDA-MB-435 [2], 16.9 µg/mL (≈ 31.4 µM); in the test on HeLa [4] it was 15.2 µg/mL (≈ 28.3 µM); with HeLa [5] it was 16 µg/mL (≈ 29.7 µM). Also, the inhibition in vivo at 100 mg/kg/day in the test on Rattus norvegicus [3] was 36.5%.
In the same order, the values of `COc1ccc(/C=C2/N=C(c3ccccc3)N(c3ccc4oc(-c5ccccc5)cc(=O)c4c3)C2=O)cc1` are 21.7 µg/mL (≈ 43.6 µM), 18.5 µg/mL (≈ 37.1 µM), 14.2 µg/mL (≈ 28.6 µM), 17.6 µg/mL (≈ 35.3 µM) and 45.1%.
The corresponding values for `Nc1ccc2oc(-c3ccccc3)cc(=O)c2c1` [6-AMINOFLAVONE] are 78.4 µg/mL (≈ 330 µM), 59.5 µg/mL (≈ 251 µM), 55.8 µg/mL (≈ 235 µM), 63.6 µg/mL (≈ 268 µM) and 24.2%.
For the molecule `COc1cccc2c1C(=O)c1c(O)c3c(c(O)c1C2=O)C[C@@](O)(C(=O)CO)C[C@@H]3O[C@H]1C[C@H](N)[C@H](O)[C@H](C)O1.Cl` [DOXORUBICIN HYDROCHLORIDE], the IC50 with MDA-MB-435 [1] was determined as 0.93 µg/mL; with MDA-MB-435 [2], 0.77 µg/mL. Moreover, the Activity with HeLa [6] worked out at 16.62%; in the test on HeLa [7], 4.01%; with HeLa [8], 2.22%; with HeLa [9], 76.76%.
Take `CC(C)Cc1ccc(C(C)C(=O)O)cc1` (stereo not drawn) [IBUPROFEN]: the inhibition in vivo at 50 mg/kg with Rattus norvegicus [10] was determined as 67.1%.
Consider `O=C1/C(=C\c2ccc(O)cc2)N=C(c2ccccc2)N1c1ccc2oc(-c3ccccc3)cc(=O)c2c1`, for which the IC50 in the test on MDA-MB-435 [1] was found to be 21.4 µg/mL (≈ 44.1 µM); in the test on MDA-MB-435 [2], 18 µg/mL (≈ 37.2 µM); in the test on HeLa [4], 16.4 µg/mL (≈ 33.8 µM); in the test with HeLa [5] it was 18.9 µg/mL (≈ 39 µM). In the test on Rattus norvegicus [3], the inhibition in vivo at 100 mg/kg/day was 47.6%.
With `O=C1/C(=C\c2ccccc2)N=C(c2ccccc2)N1c1ccc2oc(-c3ccccc3)cc(=O)c2c1`, the concentration for half-maximal inhibition (IC50) with MDA-MB-435 [1] came to 26.4 µg/mL (≈ 56.3 µM); in the test with MDA-MB-435 [2] it was 24.3 µg/mL (≈ 51.8 µM); with HeLa [4] it was 20.1 µg/mL (≈ 42.9 µM); with HeLa [5] it was 20.9 µg/mL (≈ 44.6 µM). For the same molecule, the inhibition in vivo at 100 mg/kg/day with Rattus norvegicus [3] amounted to 38.2%.
Turning to `COc1ccc(/C=C2/N=C(c3ccccc3)N(c3ccc4oc(-c5ccccc5)cc(=O)c4c3)C2=O)cc1OC`, the Activity in [11] was 17.47%; in test [12], 19.99%; in [15] it was 28.87%; in the test on HeLa [6] it was 36.8%; in the test on HeLa [7], 14.1%; in test [18], 32.72%. The Activity is listed as 21.63% in the test with HeLa [8]; 9.39% in test [19]; 32.35% in test [20]; 13.63% in test [22]; 35.29% in test [23]; 28.37% in the test on HeLa [9]. Further, the Activity in test [26] came out at 3.58%. Also, the MST in test [13] amounted to 23 days; in test [14], 23 days; in [17], 22.5 days; in [25] it was 22.33 days. Besides, in the test on Ehrlich, the inhibition entry was “Active”. Besides, the IC50 in the test with MDA-MB-435 [1] was found to be 11.9 µg/mL (≈ 22.6 µM); in the test on MDA-MB-435 [2], 10.8 µg/mL (≈ 20.4 µM); with HeLa [4] it was 9.87 µg/mL (≈ 18.7 µM); with HeLa [5], 11.1 µg/mL (≈ 21 µM). Moreover, in the test on HeLa [16], the outcome was Active. Further, the inhibition in vivo at 100 mg/kg/day with Rattus norvegicus [3] turned out to be 49.8%. Besides, the “Ratio IC50” value with HeLa [21] and in the test on MDA-MB-435 [24] was 5 throughout.
